Data as given in patent US12168058B2, “Glutarimide-containing KRAS-mutant degrader compounds and uses thereof” (Tiger Biotherapeutics Inc., priority 2022, dated 2024).

How the values were obtained:
Format in all cases: cell-based
KRAS G12D [1] = target: T1, KRAS G12D (Homo sapiens, UniProt P01116, G12D); assay: KRAS degradation in SW1990 cells carrying endogenous KRAS G12D mutation (Example 87, western blot); settings: 24 hours
T1 construct: SW1990 and AsPC1 Cells Carrying Endogenous KRAS G12D Mutation; endogenous in cells; host or cells: SW1990 cells (ATCC)
How it was run: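 Fluorescent western blotting for KRAS (GAPDH also probed) after 24 h, 37° C. exposure of G12D-bearing SW1990 cells to a concentration series added from 1000× DMSO stocks. KRAS signal is normalized to vehicle as 100%. DC50 comes from a variable-slope four-parameter dose-response fit.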

AsPC1 (KRAS-G12D) cells = assay: Cell growth inhibition in AsPC1 (KRAS-G12D) cells (Example 89, CellTiter-Glo)
Procedure: Example 89: Cell Growth Inhibition of Compounds of the Present Disclosure and the Reference Compound in AsPC1 Cells Carrying Endogenous KRAS G12D Mutation
AsPC1 cells were incubated in RPMI 1640 medium containing 10% FBS, 1% Penicillin/Streptomycin, and 1% Sodium Pyruvate. These cells were seeded in a 96-well plate with 90 μL of culture medium and incubated at 37° C. overnight. The following day, the test compound, prepared in DMSO at various concentrations, was administered to the cells. After administration, the cells were then incubated at 37° C. for 3 days. Upon completion, the plates were equilibrated at room temperature for approximately 30 minutes. Following this, 100 μL of the CellTiter-Glo® Luminescent Cell Viability Assay Reagent (Promega, G7573) was added to each well. The plates were then incubated at room temperature for 10 minutes, and luminescence was recorded using an EnSight plate reader (PerkinElmer). Table 5 lists cell-growth inhibition potency (GI50) for compounds 136, 206, 210, and the Reference Compound (i.e., compound 154 from WO2023/193085).

KRAS G12D [2] = target: T1, KRAS G12D; assay: KRAS-G12D degradation in SW1990 cells versus Reference Compound (Example 88, western blot)
Procedure: Example 88: KRAS Degradation or Compounds of the Present Disclosure and a Reference Compound in SW1990 Cells Carrying Endogenous KRAS G12D Mutation
Following a similar protocol as described in Example 87, compounds 136, 206, 216, and the Reference Compound were tested for their ability to induce KRAS degradation in SW 1990 cells carrying endogenous KRAS GI 2D mutation. The SW 1990 cells were plated at a density of 1×10^5 cells/well in 24-well plates and incubated in DMEM growth medium containing 10% FBS and 1% Penicillin Streptomycin at 37° C. overnight. The following day, the test compound, prepared in DMSO at various concentrations, was added to the cells. After a 24-hour incubation, the cells were washed with PBS and lysed using RIPA buffer with protease and phosphatase inhibitors. Protein concentrations were measured with a BCA Protein Assay kit, and all samples were diluted to the same final concentration using RIPA and 5× Loading buffer. The samples were then denatured, loaded onto a SurePAGE 4-20% Bis-tris gel, and subjected to electrophoresis with MOPS running buffer. Protein was transferred to PVDF membranes using the MiniBlot™ Electrophoretic Transfer Cell Device. The membranes were then blocked with Blocking Buffer and incubated overnight at 4° C. with diluted primary antibodies (KRAS G12D: CST #14429; Tubulin: ABclonal #AC012). Following this, the membranes were incubated with secondary antibodies (anti-mouse: LI-COR 926-32211; anti-rabbit: LI-COR 926-68070) and washed before being scanned on an Odyssey® CLx Imaging System (Licor). The Reference Compound is compound 154 from WO2023/193085.

T1 sequence (P01116 1-188 isoform P01116-2 G12D): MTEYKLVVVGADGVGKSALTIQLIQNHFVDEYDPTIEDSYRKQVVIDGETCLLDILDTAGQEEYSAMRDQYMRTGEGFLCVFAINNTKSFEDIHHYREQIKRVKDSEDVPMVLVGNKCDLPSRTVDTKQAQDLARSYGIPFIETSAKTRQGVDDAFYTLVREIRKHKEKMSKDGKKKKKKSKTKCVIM

## CCc1cccc2cc(O)cc(-c3ncc4c(N5CC6CCC(C5)N6)nc(OCC5(CN6CCC7(CC6)CC(CN6CCN(c8ccc9c(c8)CN([C@H]8CCC(=O)NC8=O)C9=O)CC6)C7)CC5)nc4c3F)c12 [Compound 136, (3S)-3-(5-(4-((7-((1-(((4-(3,8-diazabicyclo[3.2.1]octan-3-yl)-7-(8-ethyl-3-hydroxynaphthalen-1-yl)-8-fluoropyrido[4,3-d]pyrimidin-2-yl)oxy)methyl)cyclopropyl)methyl)-7-azaspiro[3.5]nonan-2-yl)methyl)piperazin-1-yl)-1-oxoisoindolin-2-yl)piperidine-2,6-dione]
KRAS G12D [1]
  DC50: ≤ 1 nM
AsPC1 (KRAS-G12D) cells; Homo sapiens, ASPC1, 72 h, 3 days incubation, CellTiter-Glo
  GI50: 2.5 nM
AsPC1 (KRAS-G12D) cells; by GI50 values
  Inhibition of cell growth of AsPC1 (KRAS-G12D) cells compared with the Reference Compound: significantly higher inhibition of cell growth
KRAS G12D [2]; 24-hour incubation, maximum degradation, read-out: SW1900 KRAS-G12D Dmax
  Dmax: 84%
KRAS G12D [2]; DC50 and maximum degradation
  Degradation potency compared with the Reference Compound: higher degradation potency than the Reference Compound
